Data as given in paper PMC11480411, “Mucosal sugars delineate pyrazine vs pyrazinone autoinducer signaling in Klebsiella oxytoca” (Nature Communications, 2024).
Values joined by “and” are separate entries in the source; they are usually repeats but may differ in a detail not shown here. Equal values may be shown once.

Assays:
Format in all cases: cell-based
[1] = molecular target: T1, LPAR2 (Homo sapiens, UniProt Q9HBW0); experiment: PRESTO-Tango GPCR screen; details: 100 µM
T1 construct: purchased PRESTO-Tango GPCR kit (Roth lab / Addgene)
Method in brief: (§1)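 Receptor activation is detected through β-arrestin-TEV cleavage releasing tTA, which drives luciferase in HTLA cells. Transfected cells receive compound (100 μM final) in DMEM with 10 mM HEPES for 20 h; Bright-Glo luminescence is divided by the PBS-control signal.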

[2] = molecular target: T2, MRGPRX4 (Homo sapiens, UniProt Q96LA9); experiment: PRESTO-Tango GPCR screen; details: 100 µM
T2 construct: purchased PRESTO-Tango GPCR kit (Roth lab / Addgene)
T2 sequence (Q96LA9 whole entry): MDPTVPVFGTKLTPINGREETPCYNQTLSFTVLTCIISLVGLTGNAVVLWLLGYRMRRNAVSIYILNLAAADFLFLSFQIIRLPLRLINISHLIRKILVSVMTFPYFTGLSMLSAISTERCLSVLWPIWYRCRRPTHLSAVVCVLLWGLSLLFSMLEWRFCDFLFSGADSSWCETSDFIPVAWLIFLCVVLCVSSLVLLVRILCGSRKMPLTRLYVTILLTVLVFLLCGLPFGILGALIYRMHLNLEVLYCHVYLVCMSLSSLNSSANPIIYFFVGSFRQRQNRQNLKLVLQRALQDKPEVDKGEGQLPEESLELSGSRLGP
Method in brief: as §1

[3] = molecular target: T3, UTS2R (Homo sapiens, UniProt Q9UKP6); experiment: PRESTO-Tango GPCR screen; details: 100 µM
T3 construct: purchased PRESTO-Tango GPCR kit (Roth lab / Addgene)
Method in brief: as §1

[4] = molecular target: T4, PTGER2 (Homo sapiens, UniProt P43116); experiment: PRESTO-Tango GPCR screen; details: 100 µM
T4 construct: purchased PRESTO-Tango GPCR kit (Roth lab / Addgene)
Method in brief: as §1

[5] = molecular target: T5, PTAFR (Homo sapiens, UniProt P25105); experiment: PRESTO-Tango GPCR screen; details: 100 µM
T5 construct: purchased PRESTO-Tango GPCR kit (Roth lab / Addgene)
T5 sequence (P25105 whole entry): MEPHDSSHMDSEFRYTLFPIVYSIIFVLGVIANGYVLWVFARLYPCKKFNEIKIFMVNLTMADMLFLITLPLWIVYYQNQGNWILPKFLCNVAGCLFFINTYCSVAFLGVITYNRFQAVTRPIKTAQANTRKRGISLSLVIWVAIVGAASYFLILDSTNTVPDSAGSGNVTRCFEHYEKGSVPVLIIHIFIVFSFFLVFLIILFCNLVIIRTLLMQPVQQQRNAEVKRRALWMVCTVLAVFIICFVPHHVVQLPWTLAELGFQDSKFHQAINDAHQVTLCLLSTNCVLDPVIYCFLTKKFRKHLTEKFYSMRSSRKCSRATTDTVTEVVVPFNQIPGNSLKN
Method in brief: as §1

[6] = molecular target: T6, GPR162 (Homo sapiens, UniProt Q16538); experiment: PRESTO-Tango GPCR screen; details: 100 µM
T6 construct: purchased PRESTO-Tango GPCR kit (Roth lab / Addgene)
Method in brief: as §1

[7] = molecular target: T7, RXFP4 (Homo sapiens, UniProt Q8TDU9); experiment: PRESTO-Tango GPCR screen; details: 100 µM
T7 construct: purchased PRESTO-Tango GPCR kit (Roth lab / Addgene)
Method in brief: as §1

[8] = molecular target: T8, PTGER1 (Homo sapiens, UniProt P34995); experiment: PRESTO-Tango GPCR screen; details: 100 µM
T8 construct: purchased PRESTO-Tango GPCR kit (Roth lab / Addgene)
T8 sequence (P34995 whole entry): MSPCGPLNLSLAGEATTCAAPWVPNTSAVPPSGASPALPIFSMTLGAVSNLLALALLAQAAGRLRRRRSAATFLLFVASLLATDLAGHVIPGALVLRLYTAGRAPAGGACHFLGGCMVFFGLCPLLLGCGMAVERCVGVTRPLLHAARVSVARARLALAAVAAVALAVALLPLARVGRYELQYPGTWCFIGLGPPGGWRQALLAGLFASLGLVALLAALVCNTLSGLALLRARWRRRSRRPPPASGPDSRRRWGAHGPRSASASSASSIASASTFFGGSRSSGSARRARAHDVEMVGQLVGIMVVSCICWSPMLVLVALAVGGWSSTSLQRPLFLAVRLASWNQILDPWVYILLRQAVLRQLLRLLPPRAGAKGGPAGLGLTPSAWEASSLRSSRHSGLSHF
Method in brief: as §1

[9] = molecular target: T9, GPR83 (Homo sapiens, UniProt Q9NYM4); experiment: PRESTO-Tango GPCR screen; details: 100 µM
T9 construct: purchased PRESTO-Tango GPCR kit (Roth lab / Addgene)
Method in brief: as §1

[10] = molecular target: T10, PK2 (Homo sapiens, UniProt Q8NFJ6); experiment: PRESTO-Tango GPCR screen; details: 100 µM
T10 construct: purchased PRESTO-Tango GPCR kit (Roth lab / Addgene)
Method in brief: as §1

[11] = molecular target: T11, GPR35 (Homo sapiens, UniProt Q9HC97); experiment: PRESTO-Tango GPCR screen; details: 100 µM
T11 construct: purchased PRESTO-Tango GPCR kit (Roth lab / Addgene)
T11 sequence (Q9HC97 whole entry): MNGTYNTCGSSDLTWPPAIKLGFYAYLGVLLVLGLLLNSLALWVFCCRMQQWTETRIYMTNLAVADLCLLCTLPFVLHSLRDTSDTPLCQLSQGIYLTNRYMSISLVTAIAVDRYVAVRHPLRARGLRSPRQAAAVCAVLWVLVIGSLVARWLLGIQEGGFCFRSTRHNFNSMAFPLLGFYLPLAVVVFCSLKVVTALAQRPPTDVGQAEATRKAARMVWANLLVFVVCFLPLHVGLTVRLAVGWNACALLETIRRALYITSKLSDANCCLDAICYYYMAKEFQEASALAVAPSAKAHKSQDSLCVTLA
Method in brief: as §1

[12] = molecular target: T12, GPR45 (Homo sapiens, UniProt Q9Y5Y3); experiment: PRESTO-Tango GPCR screen; details: 100 µM
T12 construct: purchased PRESTO-Tango GPCR kit (Roth lab / Addgene)
Method in brief: as §1

[13] = molecular target: T13, HTR1E (Homo sapiens, UniProt P28566); experiment: PRESTO-Tango GPCR screen; details: 100 µM
T13 construct: purchased PRESTO-Tango GPCR kit (Roth lab / Addgene)
Method in brief: as §1

[14] = molecular target: T14, ADRA2C (Homo sapiens, UniProt P18825); experiment: PRESTO-Tango GPCR screen; details: 100 µM
T14 construct: purchased PRESTO-Tango GPCR kit (Roth lab / Addgene)
Method in brief: as §1

[15] = molecular target: T15, TACR2 (Homo sapiens, UniProt P21452); experiment: PRESTO-Tango GPCR screen; details: 100 µM
T15 construct: purchased PRESTO-Tango GPCR kit (Roth lab / Addgene)
T15 sequence (P21452 whole entry): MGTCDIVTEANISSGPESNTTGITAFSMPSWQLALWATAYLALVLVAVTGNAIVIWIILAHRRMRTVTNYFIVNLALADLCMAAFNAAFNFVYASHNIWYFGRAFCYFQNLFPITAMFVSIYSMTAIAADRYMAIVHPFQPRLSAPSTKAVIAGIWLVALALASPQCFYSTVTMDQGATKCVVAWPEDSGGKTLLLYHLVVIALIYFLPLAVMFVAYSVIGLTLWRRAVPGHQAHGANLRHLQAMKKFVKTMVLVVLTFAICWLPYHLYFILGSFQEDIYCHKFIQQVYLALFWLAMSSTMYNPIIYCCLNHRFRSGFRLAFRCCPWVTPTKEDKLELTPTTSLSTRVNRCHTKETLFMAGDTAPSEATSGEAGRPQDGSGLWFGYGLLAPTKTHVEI
Method in brief: as §1

[16] = molecular target: T16, CCKBR (Homo sapiens, UniProt P32239); experiment: PRESTO-Tango GPCR screen; details: 100 µM
T16 construct: purchased PRESTO-Tango GPCR kit (Roth lab / Addgene)
Method in brief: as §1

[17] = molecular target: T17, GPR88 (Homo sapiens, UniProt Q9GZN0); experiment: PRESTO-Tango GPCR screen; details: 100 µM
T17 construct: purchased PRESTO-Tango GPCR kit (Roth lab / Addgene)
T17 sequence (Q9GZN0 whole entry): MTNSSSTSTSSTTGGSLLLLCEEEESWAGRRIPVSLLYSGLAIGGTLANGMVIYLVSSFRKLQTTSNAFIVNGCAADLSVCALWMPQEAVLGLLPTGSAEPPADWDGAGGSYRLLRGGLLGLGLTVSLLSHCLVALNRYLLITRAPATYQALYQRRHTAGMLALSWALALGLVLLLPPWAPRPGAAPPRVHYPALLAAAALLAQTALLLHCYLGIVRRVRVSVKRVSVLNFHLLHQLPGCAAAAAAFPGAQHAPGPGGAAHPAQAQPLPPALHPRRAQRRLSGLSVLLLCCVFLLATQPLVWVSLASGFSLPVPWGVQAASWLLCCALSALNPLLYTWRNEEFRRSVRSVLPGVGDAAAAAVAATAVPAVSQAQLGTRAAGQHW
Method in brief: as §1

[18] = molecular target: T18, NPY1R (Homo sapiens, UniProt P25929); experiment: PRESTO-Tango GPCR screen; details: 100 µM
T18 construct: purchased PRESTO-Tango GPCR kit (Roth lab / Addgene)
T18 sequence (P25929 whole entry): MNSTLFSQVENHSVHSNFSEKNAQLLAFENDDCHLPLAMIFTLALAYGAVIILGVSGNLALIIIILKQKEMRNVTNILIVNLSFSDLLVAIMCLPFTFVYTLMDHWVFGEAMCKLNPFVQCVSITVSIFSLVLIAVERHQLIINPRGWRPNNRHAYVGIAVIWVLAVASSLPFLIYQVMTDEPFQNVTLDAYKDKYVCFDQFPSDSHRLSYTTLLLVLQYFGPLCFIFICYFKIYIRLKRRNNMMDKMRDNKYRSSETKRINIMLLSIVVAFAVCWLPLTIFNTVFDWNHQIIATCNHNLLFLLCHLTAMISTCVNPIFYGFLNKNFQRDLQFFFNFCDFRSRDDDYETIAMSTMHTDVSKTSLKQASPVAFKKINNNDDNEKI
Method in brief: as §1

[19] = molecular target: T19, GCGR (Homo sapiens, UniProt P47871); experiment: PRESTO-Tango GPCR screen; details: 100 µM
T19 construct: purchased PRESTO-Tango GPCR kit (Roth lab / Addgene)
Method in brief: as §1

[20] = molecular target: T20, GRM1 (Homo sapiens, UniProt Q13255); experiment: PRESTO-Tango GPCR screen; details: 100 µM
T20 construct: purchased PRESTO-Tango GPCR kit (Roth lab / Addgene)
T20 sequence (Q13255 19-1194): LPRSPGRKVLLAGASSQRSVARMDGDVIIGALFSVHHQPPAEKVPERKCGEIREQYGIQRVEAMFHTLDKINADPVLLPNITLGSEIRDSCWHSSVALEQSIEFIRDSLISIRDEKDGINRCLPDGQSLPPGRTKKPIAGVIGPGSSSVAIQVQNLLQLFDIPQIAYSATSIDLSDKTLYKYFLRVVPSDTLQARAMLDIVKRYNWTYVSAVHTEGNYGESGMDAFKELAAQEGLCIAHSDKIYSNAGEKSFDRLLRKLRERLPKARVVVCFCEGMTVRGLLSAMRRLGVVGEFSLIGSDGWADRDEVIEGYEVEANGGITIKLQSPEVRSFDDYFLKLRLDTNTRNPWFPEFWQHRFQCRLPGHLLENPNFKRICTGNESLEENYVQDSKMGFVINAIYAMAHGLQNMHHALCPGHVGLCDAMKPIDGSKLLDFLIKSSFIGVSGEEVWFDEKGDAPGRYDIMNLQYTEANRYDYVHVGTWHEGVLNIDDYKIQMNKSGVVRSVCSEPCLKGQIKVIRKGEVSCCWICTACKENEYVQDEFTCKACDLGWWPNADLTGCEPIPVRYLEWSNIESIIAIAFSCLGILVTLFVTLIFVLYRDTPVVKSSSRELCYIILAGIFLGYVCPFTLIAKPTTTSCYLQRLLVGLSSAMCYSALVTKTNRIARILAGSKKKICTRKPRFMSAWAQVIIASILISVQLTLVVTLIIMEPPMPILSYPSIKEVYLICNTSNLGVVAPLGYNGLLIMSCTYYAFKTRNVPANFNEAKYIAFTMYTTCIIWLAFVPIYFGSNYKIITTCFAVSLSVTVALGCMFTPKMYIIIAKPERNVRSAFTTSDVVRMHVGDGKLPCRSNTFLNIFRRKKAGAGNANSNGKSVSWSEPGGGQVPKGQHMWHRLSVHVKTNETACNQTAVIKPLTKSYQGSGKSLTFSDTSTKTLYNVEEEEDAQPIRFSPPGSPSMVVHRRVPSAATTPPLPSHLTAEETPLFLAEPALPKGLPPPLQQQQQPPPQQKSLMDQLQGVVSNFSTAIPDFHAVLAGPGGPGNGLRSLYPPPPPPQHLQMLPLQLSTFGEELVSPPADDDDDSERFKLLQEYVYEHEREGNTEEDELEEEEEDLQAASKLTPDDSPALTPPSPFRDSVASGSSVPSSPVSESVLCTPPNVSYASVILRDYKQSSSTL
Method in brief: as §1

[21] = molecular target: T21, GPR15 (Homo sapiens, UniProt P49685); experiment: PRESTO-Tango GPCR screen; details: 100 µM
T21 construct: purchased PRESTO-Tango GPCR kit (Roth lab / Addgene)
T21 sequence (P49685 whole entry): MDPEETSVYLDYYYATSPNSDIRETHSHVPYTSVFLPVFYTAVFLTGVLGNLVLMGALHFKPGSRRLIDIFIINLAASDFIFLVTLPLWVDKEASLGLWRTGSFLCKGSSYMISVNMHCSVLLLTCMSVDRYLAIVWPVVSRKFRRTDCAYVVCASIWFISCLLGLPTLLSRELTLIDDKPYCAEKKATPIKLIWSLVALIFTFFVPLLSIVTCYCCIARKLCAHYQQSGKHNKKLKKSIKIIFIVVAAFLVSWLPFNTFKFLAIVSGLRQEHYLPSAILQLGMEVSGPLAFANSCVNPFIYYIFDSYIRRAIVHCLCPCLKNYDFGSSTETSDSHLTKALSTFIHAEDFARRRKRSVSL
Method in brief: as §1

[22] = molecular target: T22, GPR119 (Homo sapiens, UniProt Q8TDV5); experiment: PRESTO-Tango GPCR screen; details: 100 µM
T22 construct: purchased PRESTO-Tango GPCR kit (Roth lab / Addgene)
Method in brief: as §1

[23] = molecular target: T23, GPR171 (Homo sapiens, UniProt O14626); experiment: PRESTO-Tango GPCR screen; details: 100 µM
T23 construct: purchased PRESTO-Tango GPCR kit (Roth lab / Addgene)
Method in brief: as §1

[24] = molecular target: T24, HTR2B (Homo sapiens, UniProt P41595); experiment: PRESTO-Tango GPCR screen; details: 100 µM
T24 construct: purchased PRESTO-Tango GPCR kit (Roth lab / Addgene)
Method in brief: as §1

[25] = molecular target: T25, histamine receptor H4 (HRH4) (Homo sapiens, UniProt Q9H3N8); experiment: PRESTO-Tango GPCR screen and dose-response; details: for HRH4 dose-response raw reporter signal (Fig. 5b source data): replicate wells
T25 construct: expressed in transfected cells; host or cells: HTLA cells (HEK293 line stably expressing β-arrestin-TEV and tTA-Luciferase)
T25 sequence (Q9H3N8 whole entry): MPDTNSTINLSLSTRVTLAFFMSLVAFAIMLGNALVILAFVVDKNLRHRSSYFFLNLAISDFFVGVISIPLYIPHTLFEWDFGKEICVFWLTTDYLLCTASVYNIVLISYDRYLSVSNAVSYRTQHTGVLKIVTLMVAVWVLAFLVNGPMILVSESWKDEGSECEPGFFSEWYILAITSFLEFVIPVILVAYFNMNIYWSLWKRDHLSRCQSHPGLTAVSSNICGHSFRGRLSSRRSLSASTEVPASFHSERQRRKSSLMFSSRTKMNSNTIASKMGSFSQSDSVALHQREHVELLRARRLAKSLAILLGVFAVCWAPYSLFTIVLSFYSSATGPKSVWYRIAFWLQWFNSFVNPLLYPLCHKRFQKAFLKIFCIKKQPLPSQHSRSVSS
Method in brief: (§2)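 Each receptor was expressed from a Tango plasmid in HTLA cells, which stably carry β-arrestin-TEV and a tTA-driven luciferase reporter. Single-point screening used 100 μM final compound for 20 h, and the signal was normalised to PBS control. Concentration-response testing spanned 10^−4 to 10^−15 M.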

[26] = molecular target: T26, HRH1 (Homo sapiens, UniProt P35367); experiment: PRESTO-Tango GPCR screen and dose-response; details: for HRH1 dose-response raw reporter signal (Fig. 5b source data): replicate wells
T26 construct: expressed in transfected cells; host or cells: HTLA cells (HEK293 line stably expressing β-arrestin-TEV and tTA-Luciferase)
T26 sequence (P35367 whole entry): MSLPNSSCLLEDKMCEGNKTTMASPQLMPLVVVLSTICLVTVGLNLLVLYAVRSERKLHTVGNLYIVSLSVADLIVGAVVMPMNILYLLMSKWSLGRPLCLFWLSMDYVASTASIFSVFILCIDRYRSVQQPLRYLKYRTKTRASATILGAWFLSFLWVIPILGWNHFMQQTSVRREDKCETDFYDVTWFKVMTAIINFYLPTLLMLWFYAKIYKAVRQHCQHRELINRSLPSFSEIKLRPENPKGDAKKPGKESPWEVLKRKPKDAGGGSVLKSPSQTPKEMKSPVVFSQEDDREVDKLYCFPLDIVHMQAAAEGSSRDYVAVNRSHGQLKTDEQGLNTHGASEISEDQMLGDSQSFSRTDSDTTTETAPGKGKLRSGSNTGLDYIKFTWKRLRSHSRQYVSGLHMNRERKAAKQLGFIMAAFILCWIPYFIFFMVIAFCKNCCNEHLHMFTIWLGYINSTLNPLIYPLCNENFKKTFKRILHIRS
Method in brief: as §2

[27] = test system: 314-member panel of human G protein-coupled receptors (GPCRs); experiment: PRESTO-Tango screen of 314-member human GPCR panel; details: 100 µM, HTLA cells
Method: The PRESTO-Tango analyses were performed as previously published. Briefly, HTLA cells, a HEK293 cell line that stably expresses β-arrestin-TEV and tTA-Luciferase (a kind gift from Gilad Barnea, Brown University), were plated in 96-well tissue culture plates (Eppendorf) in DMEM containing 10% FBS and 1% Penicillin/Streptomycin. One day after plating (after reaching approximately 90% confluence), 200 ng per well GPCR-Tango plasmids[37] in 20 μL DMEM were individually mixed with 400 ng polyethylenimine (Polysciences) in an equal volume of DMEM and incubated for 20 min at room temperature before adding the transfection mixture to the HTLA cells. 16-24 h after transfection, medium was replaced with 180 μL fresh DMEM containing 1% Penicillin/Streptomycin and 10 mM HEPES and 20 μL of 3 or 3-Homo to reach a final concentration of 100 μM. Supernatants were aspirated 20 h after stimulation and 50 μl per well of Bright-Glo solution (Promega) diluted 20-fold with PBS containing 20 mM HEPES was added into each well. After 15 min incubation at room temperature, luminescence was quantified using a Spectramax i3x microplate reader (Molecular Devices). Activation fold for each sample was calculated by dividing relative luminescence units (RLU) for each condition by RLUs from PBS control. […]

## CC(C)Cc1ncc(CCCCNC(=N)N)[nH]c1=O [3-Homo]
[1]
  GPCR activation (heatmap value): 0.05246
[2]
  GPCR activation (heatmap value): 0.4562
[3]
  GPCR activation (heatmap value): -1.423
[4]
  GPCR activation (heatmap value): -0.3082
[5]
  GPCR activation (heatmap value): -0.1375
[6]
  GPCR activation (heatmap value): -0.5864
[7]
  GPCR activation (heatmap value): -0.8625
[8]
  GPCR activation (heatmap value): 0.737
[9]
  GPCR activation (heatmap value): 0.2309
[10]
  GPCR activation (heatmap value): -0.9094
[11]
  GPCR activation (heatmap value): 0.1027
[12]
  GPCR activation (heatmap value): -0.6461
[13]
  GPCR activation (heatmap value): 0.001914
[14]
  GPCR activation (heatmap value): 0.6954
[15]
  GPCR activation (heatmap value): 0.6939
[16]
  GPCR activation (heatmap value): 0.2356
[17]
  GPCR activation (heatmap value): -0.7293
[18]
  GPCR activation (heatmap value): -1.44
[19]
  GPCR activation (heatmap value): 0.3222
[20]
  GPCR activation (heatmap value): -0.1347
[21]
  GPCR activation (heatmap value): -0.3204
[22]
  GPCR activation (heatmap value): -1.3809
[23]
  GPCR activation (heatmap value): -0.9424
[24]
  GPCR activation (heatmap value): -0.5052
[25]; HRH4, 100 µM
  GPCR activation (heatmap value): 2.481
[25]; Log(10)Conc (M) -5
  HRH4 dose-response raw reporter signal (Fig. 5b source data): 18151 and 17815
[25]; Log(10)Conc (M) -6
  HRH4 dose-response raw reporter signal (Fig. 5b source data): 6385 and 6598
[25]; Log(10)Conc (M) -7
  HRH4 dose-response raw reporter signal (Fig. 5b source data): 1365 and 1430
[25]; Log(10)Conc (M) -8
  HRH4 dose-response raw reporter signal (Fig. 5b source data): 793 and 758
[25]; Log(10)Conc (M) -9
  HRH4 dose-response raw reporter signal (Fig. 5b source data): 522 and 575
[25]; Log(10)Conc (M) -10
  HRH4 dose-response raw reporter signal (Fig. 5b source data): 463 and 475
[25]; Log(10)Conc (M) -11
  HRH4 dose-response raw reporter signal (Fig. 5b source data): 357 and 469
[25]; Log(10)Conc (M) -12
  HRH4 dose-response raw reporter signal (Fig. 5b source data): 542 and 504
[25]; Log(10)Conc (M) -13
  HRH4 dose-response raw reporter signal (Fig. 5b source data): 404 and 363
[25]; Log(10)Conc (M) -14
  HRH4 dose-response raw reporter signal (Fig. 5b source data): 351 and 360
[25]; Log(10)Conc (M) -15
  HRH4 dose-response raw reporter signal (Fig. 5b source data): 333 and 448
[25]; PRESTO-Tango dose-response, n = 3, read-out: EC50 (HRH4 activation)
  EC50: 2700 nM
[26]; HRH1, 100 µM
  GPCR activation (heatmap value): 0.1843
[26]; Log(10)Conc (M) -4
  HRH1 dose-response raw reporter signal (Fig. 5b source data): 49786 and 49898
[26]; Log(10)Conc (M) -5
  HRH1 dose-response raw reporter signal (Fig. 5b source data): 48910 and 46012
[26]; Log(10)Conc (M) -6
  HRH1 dose-response raw reporter signal (Fig. 5b source data): 48701 and 46228
[26]; Log(10)Conc (M) -7
  HRH1 dose-response raw reporter signal (Fig. 5b source data): 46626 and 44830
[26]; Log(10)Conc (M) -8
  HRH1 dose-response raw reporter signal (Fig. 5b source data): 47613 and 46402
[26]; Log(10)Conc (M) -9
  HRH1 dose-response raw reporter signal (Fig. 5b source data): 46045 and 44597
[26]; Log(10)Conc (M) -10
  HRH1 dose-response raw reporter signal (Fig. 5b source data): 46658 and 45508
[26]; Log(10)Conc (M) -11
  HRH1 dose-response raw reporter signal (Fig. 5b source data): 45821 and 45927
[26]; Log(10)Conc (M) -12
  HRH1 dose-response raw reporter signal (Fig. 5b source data): 46189 and 46705
[26]; Log(10)Conc (M) -13
  HRH1 dose-response raw reporter signal (Fig. 5b source data): 47852 and 47304
[26]; Log(10)Conc (M) -14
  HRH1 dose-response raw reporter signal (Fig. 5b source data): 47480 and 47139
[26]; Log(10)Conc (M) -15
  HRH1 dose-response raw reporter signal (Fig. 5b source data): 43822 and 41222
[27]
  selectivity across the GPCR panel: selective agonists for histamine receptor H4
